Laboratory results reported in US8410056B2, “Pro-oxidant anti-cancer compounds” (priority 2006, dated 2013).

Key:
[1] = system: Chinese hamster lung fibroblasts (B1, B10, B9, B9rec cells); assay: ROS, SDH activity and apoptosis in complex I- and complex II-deficient cells; type: cell-based
Procedure: Cell culture and treatment. […] Cells were cultured in DMEM with 10% FCS, 100 U/ml penicillin and 100 μg/ml streptomycin at 37° C. in a humidified atmosphere of 5% CO2. Mitochondrial complex I-deficient (Breen and Scheffler 1979; DeFrancesco et al 1976; Scheffler et al 2004) and complex II-deficient cells (Albayrak et al 2003; Oostveen et al 1995) were grown in DMEM with 10% FCS, […] glucose and non-essential amino acids.
Assessment of ROS accumulation. Cellular ROS were detected with the probe dihydroethidinium (DHE) (Molecular Probes) by flow cytometry (Weber et al, 2003), or by trapping with 5,5-dimethyl-1-pyrroline N-oxide (DMPO; Sigma) using electron paramagnetic resonance (EPR) spectro-scopy (Weber et al, 2003). In some studies, the cells were pre-treated for 1 h with 2 μM MitoQ (James et al, 2005) or coincubated with SOD (PEG-SOD, 750 units/ml; Sigma).
Apoptosis assessment. Apoptosis was quantified using the annexin V-FITC method, which detects phosphatidyl serine externalized in the early phases of apoptosis (Boersma et al, 1996). Briefly, cells were plated at 10^5 per well in 24-well plates and, after an overnight recuperation, treated with α-TOS or 3-BP alone or in combination. Floating and attached cells were harvested, washed with PBS, resuspended in 0.2 ml binding buffer (10 mM Hepes, 140 mM NaCl, 5 mM CaCl2, pH 7.4), incubated for 30 min at 4° C. with 2 μl annexin V-FITC (PharMingen), supplemented with 200 μl of 50 μg/ml propidium iodide (PI; Sigma), and analyzed by flow cytometry (FACScalibur, Becton Dickinson) using channel 1 for annexin V-FITC binding and channel 2 for PI staining. Cell death was quantified as the percentage of cells with increased annexin V binding and PI staining.
Complex I- and complex II-deficient cells were also used to confirm the above in vitro results of Example 6.

MCF-7 tumors = assay: MCF-7 xenograft in nude mice; type: in vivo; conditions: 10 μmoles i.p. every 3 d
[2] = compared to parental (B1) or B10 cells

Cc1c(C)c2c(c(C)c1OC(=O)CCC(=O)O)CC[C@@](C)(CCC[C@H](C)CCC[C@H](C)CCCC(C)C)O2 [Compound 1, α-tocopheryl succinate]
apoptosis in B1, B10 and B9 cells [1]: initiated apoptosis
cell killing in CII-reconstituted B9 cells ([1]; CybL-mutant (B9) cells after reconstitution of CII): restored cell sensitivity to α-TOS-induced killing
ROS accumulation in CII-dysfunctional B9 cells [1, 2]: lower levels of ROS accumulation
apoptosis in CII-dysfunctional B9 cells [1, 2]: relatively resistant to apoptosis
tumor growth (MCF-7 tumors): repressed the growth of tumors in the treated group of mice with an overall reduction in tumor size
